Measurements published in publication PMC8710297, “Identification of potent SENP1 inhibitors that inactivate SENP1/JAK2/STAT signaling pathway and overcome platinum drug resistance in ovarian cancer” (Clinical and Translational Medicine, 2021).

Target: T1, SENP1(C603A) (Homo sapiens, UniProt Q9P0U3, C603A)
T1 construct: GST; made in house
T1 sequence (Q9P0U3 1-644 C603A): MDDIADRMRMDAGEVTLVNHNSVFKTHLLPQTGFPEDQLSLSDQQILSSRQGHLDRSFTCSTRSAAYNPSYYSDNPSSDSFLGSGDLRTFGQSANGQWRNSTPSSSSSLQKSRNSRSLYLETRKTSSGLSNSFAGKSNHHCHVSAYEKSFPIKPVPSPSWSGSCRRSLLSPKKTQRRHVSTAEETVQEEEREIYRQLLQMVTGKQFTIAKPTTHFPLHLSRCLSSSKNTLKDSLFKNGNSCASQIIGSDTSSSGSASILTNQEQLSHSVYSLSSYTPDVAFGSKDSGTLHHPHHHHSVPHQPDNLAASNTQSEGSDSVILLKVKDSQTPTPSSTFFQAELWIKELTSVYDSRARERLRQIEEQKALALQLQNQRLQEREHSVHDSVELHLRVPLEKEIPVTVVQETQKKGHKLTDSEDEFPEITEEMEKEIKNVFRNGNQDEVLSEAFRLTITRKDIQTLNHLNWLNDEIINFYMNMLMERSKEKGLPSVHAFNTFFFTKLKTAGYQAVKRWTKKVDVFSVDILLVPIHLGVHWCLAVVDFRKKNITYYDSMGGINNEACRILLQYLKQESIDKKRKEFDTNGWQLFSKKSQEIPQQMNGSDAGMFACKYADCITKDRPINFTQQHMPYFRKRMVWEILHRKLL
Assay: In vitro thermal shift assay with mutant GST-SENP1(C603A)
Format: binding
Conditions: compared to DMSO
Protocol: FIGURE 2 UA directly interacts with Sentrin‐specific protease 1 (SENP1). (A) Cellular thermal shift assay to examine the interaction of UA with SENP1. IGROV1 CR cells pretreated with MG132 (10 μM, 1 h) were incubated with DMSO or UA for 4 h before being shifted to indicated temperatures. SENP1 stability was analyzed by using Western blot against SENP1 antibody. Right panel, quantification of non‐denatured SENP1 fraction shown in the left panel. (B) Cell‐free thermal shift assay to examine interactions of UA with SENP1. Purified SENP1 proteins were incubated with DMSO or UA for 4 h before being shifted to the indicated temperatures. SENP1 stability was analyzed by using Western blot against SENP1 antibody. Right panel, quantification of non‐denatured SENP1 fraction shown in the left panel. (C) The predicted docking pose of UA (C: green; H: white; O: red) at the hydrophobic catalytic cleft of SENP1 (C: salmon; H: white; O: red; N: blue). Key amino acid residues were highlighted. […] Stability of SENP1(C603A) was analyzed by using Western blot against SENP1 antibody. […] Left; Ultra‐high performance liquid‐chromatography‐MS/MS analyses of associated UA in indicated samples, right; quantification of data shown in left (the binding affinity of UA with SENP1‐C603A was normalized as 1). […]
The qu anti ficatio n of immunohistochemical sta in ing wa s scored blindly at lea st by two independent obser vers. […]

SMILES | thermal stability of purified mutant SENP1(C603A)
CC1(C)CC[C@]2(C(=O)O)CC[C@]3(C)C(=CC[C@@H]4[C@@]5(C)CC[C@H](O[C@@H]6O[C@H](C(=O)O)[C@@H](O)[C@H](O[C@@H]7OC[C@@H](O)[C@H](O)[C@H]7O)[C@H]6O)C(C)(C)[C@@H]5CC[C@]43C)[C@@H]2C1 [Mc, Momordin Ιc] | not increased
C[C@H]1[C@H](C)CC[C@]2(C(=O)O)CC[C@]3(C)C(=CC[C@@H]4[C@@]5(C)CC[C@H](O)C(C)(C)[C@@H]5CC[C@]43C)[C@H]12 [UA, ursolic acid, reference compound] | not increased
